Laboratory results: US6710063B1, “Activators of PPAR delta” (SmithKline Beecham Corporation, priority 1999, dated 2004)
Structures can show the parent of a compound that is named as a salt.

Biological target: T1, hPPARδ (Homo sapiens, UniProt Q03181)
T1 construct: polyHis; made in house; host or cells: E. coli
T1 sequence (Q03181 211-439 limits assumed): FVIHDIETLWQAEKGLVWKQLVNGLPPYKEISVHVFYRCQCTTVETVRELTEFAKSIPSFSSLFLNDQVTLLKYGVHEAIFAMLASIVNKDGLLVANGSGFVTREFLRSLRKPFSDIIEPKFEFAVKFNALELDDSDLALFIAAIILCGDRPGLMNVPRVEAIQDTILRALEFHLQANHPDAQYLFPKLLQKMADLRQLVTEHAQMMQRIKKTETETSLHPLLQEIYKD
Test: Scintillation Proximity Assay (SPA) binding to PPAR ligand binding domain
Settings: radioligand GW 2433 for PPARδ, receptor subtype not named in the result sentence, read-out: Apparent pKi (converted)
Experimental: Compounds were tested for their ability to bind to hPPARγ hPPARα, or PPARδ using a Scintillation Proximity Assay (SPA). The PPAR ligand binding domain (LBD) was expressed in E. coli as polyHis tagged fusion proteins and purified. The LBD was then labeled with biotin and immobilized on streptavidin-modified scintillation proximity beads. The beads were then incubated with a constant amount of the appropriate radio ligand (^3H-BRL 49653 for PPARγ, 2-(4-(2-(2,3-Ditritio-1-heptyl-3-(2,4-difluorophenyl)ureido)ethyl)phenoxy)-2-methylbutanoic acid (described in WO/008002) for hPPARα and GW 2433 (see Brown, P. J et al. Chem. Biol. 1997, 4, 909-918. For the structure and synthesis of this ligand) for PPARδ) and variable concentrations of test compound, and after equilibration the radioactivity bound to the beads was measured by a scintillation counter. The amount of nonspecific binding, as assessed by control wells containing 50 μM of the corresponding unlabelled ligand, was subtracted from each data point. For each compound tested, plots of ligand concentration vs. CPM of radio ligand bound were constructed and apparent Ki values were estimated from nonlinear least squares fit of the data assuming simple competitive binding. […]

Compound COC(=O)COc1ccc(SCc2sc(-c3ccc(C(F)(F)F)cc3)nc2C)cc1 [Example 61, Methyl 2-{4-[({4-Methyl-2-[4-(trifluoromethyl)phenyl]-1,3-thiazol-5-yl}methyl)sulfanyl]phenoxy}acetate] has a Ki greater than 316 nM.

System: not listed separately
Test: Stability at ambient temperature (observation on isolated compound)
Format: physicochemical
Settings: not given
Experimental: Example 37 was hydrolyzed as described in general procedure 3 to afford the title compound (45%) as a yellow solid: mp 124-126° C.; 1H-NMR (acetone-d6) δ 2.47 (s, 3H), 3.09 (s, 3H), 408(s, 2H), 5.25 (s, 2H), 6.70 (d, 2H), 6.91 (d, 2H), 7.83 (d, 2H), 8.16 (d, 2H); MS m/z 437(M+1)−.

With Cc1nc(-c2ccc(C(F)(F)F)cc2)sc1COc1ccc(N(C)CC(=O)O)cc1 [Example 38, N-Methyl-N-[4-(2-[4-Trifluromethylphenyl]-4-methyl-thiazole-5-ylmethoxy)phenyl]-acetic Acid] the “stability at ambient temperature” value was “unstable and gradually decomposed at ambient temperature”.

System: obese rhesus monkeys
Test: 6-month dose escalation study in obese rhesus monkeys
Format: in vivo, rhesus monkey
Settings: 3 mg/kg dose bid, in each monkey
Experimental: The compound of Example 66 was examined in a Rhesus model. […] HDLc increased by more than 40% in each monkey at the 3 mg/kg dose. […] Serum TG concentrations decreased by more than 30% in each monkey. Fasting insulin decreased by more than 20% in each monkey. Serum fibrinogen concentrations decreased by 10 20%, with peak activity observed at doses of 0.3 and 1 mg/kg.

With Cc1cc(SCc2sc(-c3ccc(C(F)(F)F)cc3)nc2C)ccc1OCC(=O)O [Example 66, 2-{2-Methyl-4-[({4-methyl-2-[4-(trifluoromethyl)phenyl]-1,3-thiazol-5-yl}methyl)sulfanyl]phenoxy}acetic Acid] the HDLc increase was “more than 40%”.

Same assay, conditions: 0.1, 0.3, 1, and 3 mg/kg bid for 28 days each

With Cc1cc(SCc2sc(-c3ccc(C(F)(F)F)cc3)nc2C)ccc1OCC(=O)O [Example 66, 2-{2-Methyl-4-[({4-methyl-2-[4-(trifluoromethyl)phenyl]-1,3-thiazol-5-yl}methyl)sulfanyl]phenoxy}acetic Acid] the “HDLc change with each dose” value was “raised HDLc with each dose”.

Same assay, conditions: dose escalation 0.1-3 mg/kg bid

For Cc1cc(SCc2sc(-c3ccc(C(F)(F)F)cc3)nc2C)ccc1OCC(=O)O [Example 66, 2-{2-Methyl-4-[({4-methyl-2-[4-(trifluoromethyl)phenyl]-1,3-thiazol-5-yl}methyl)sulfanyl]phenoxy}acetic Acid], the “LDLc particle composition (NMR analysis of lipoprotein particles)” value was “shift in the LDLc composition to fewer and larger LDLc particles”.

Same assay, conditions: in each monkey

In the case of Cc1cc(SCc2sc(-c3ccc(C(F)(F)F)cc3)nc2C)ccc1OCC(=O)O [Example 66, 2-{2-Methyl-4-[({4-methyl-2-[4-(trifluoromethyl)phenyl]-1,3-thiazol-5-yl}methyl)sulfanyl]phenoxy}acetic Acid], the Fasting insulin decrease is reported as “more than 20%”.

In the case of Cc1cc(SCc2sc(-c3ccc(C(F)(F)F)cc3)nc2C)ccc1OCC(=O)O [Example 66, 2-{2-Methyl-4-[({4-methyl-2-[4-(trifluoromethyl)phenyl]-1,3-thiazol-5-yl}methyl)sulfanyl]phenoxy}acetic Acid], the “Serum TG concentration decrease” value is reported as “more than 30%”.

System: not given
Test: not given
Settings: not given

First: Cc1cc(SCc2sc(-c3ccc(F)cc3)nc2C)ccc1OCC(=O)O [Example 73, 2-{2-Methyl-4-[({4-methyl-2-[4-fluorophenyl]-1,3-thiazol-5-yl}methyl)sulfanyl]phenoxy}acetic Acid]
Second: Cc1cc(SCc2sc(-c3ccc(Cl)cc3)nc2C)ccc1OCC(=O)O [Example 71, 2-{2-Methyl-4-[({4-methyl-2-[4chlorophenyl]-1,3-thiazol-5-yl}methyl)sulfanyl]phenoxy}acetic Acid]
The melting point of the first is lower: 45 to 46 °C for the first, 109 °C for the second.

First: Cc1nc(-c2ccc(C(F)(F)F)cc2)sc1COc1ccc(N(C)CC(=O)O)cc1 [Example 38, N-Methyl-N-[4-(2-[4-Trifluromethylphenyl]-4-methyl-thiazole-5-ylmethoxy)phenyl]-acetic Acid]
Second: Cc1nc(-c2ccc(C(F)(F)F)cc2)sc1CSc1ccc(OCC(=O)O)cc1 [Example 62, 2-{4-[({4-Methyl-2-[4-(trifluoromethyl)phenyl]-1,3-thiazol-5-yl}methyl)sulfanyl]phenoxy}acetic Acid]
The melting point of the first is lower: 124 to 126 °C for the first, 190 °C for the second.

Compared with Cc1cc(OCc2sc(-c3ccc(C(F)(F)F)cc3)nc2C)ccc1OCC(=O)O [Example 54, 2-[2-Methyl-4-({4-methyl-2-[4-(trifluoromethyl)phenyl]-1,3-thiazol-5-yl}methoxy)phenoxy]acetic Acid], Cc1nc(-c2ccc(C(F)(F)F)cc2)sc1COc1ccc(CC(=O)O)cc1Cl [Example 36, 2-[3-Chloro-4-({4-methyl-2-[4-(trifluoromethyl)phenyl]-1,3-thiazol-5-yl}methoxy)phenyl]acetic Acid] is lower in melting point: 174 to 176 °C for the first, 126 to 127 °C for the second.

First: COc1cc(CCC(=O)O)ccc1OCc1oc(-c2ccc(C(F)(F)F)cc2)nc1C [Example 24]
Second: COc1cc(CCC(=O)O)ccc1OCc1sc(-c2ccc(C(F)(F)F)cc2)nc1C [Example 6, 3-[3-Methoxy-4-({4-methyl-2-[4-(trifluoromethyl)phenyl]-1,3-thiazol-5-yl}methoxy)phenyl]propanoic Acid]
The melting point of the first is higher: 162 to 163 °C for the first, 150 to 152 °C for the second.

First: Cc1nc(-c2ccc(C(F)(F)F)cc2)oc1COc1ccc(SCC(=O)O)cc1 [Example 44, 2-{[4-({4-Methyl-2-[4-(trifluoromethyl)phenyl]-1,3-oxazol-5-yl}methoxy)phenyl]sulfanyl}acetic Acid]
Second: Cc1nc(-c2ccc(C(F)(F)F)cc2)oc1COc1ccc(/C=C/C(=O)O)cc1 [Example 22, (E)-3-[4-({4-Methyl-2-[4-(trifluoromethyl)phenyl]-1,3-oxazol-5-yl}methoxy)phenyl]-2-propenoic Acid]
The melting point of the first is lower: 138 to 140 °C for the first, 193 °C for the second.

Going from Cc1cc(SCc2sc(-c3ccc(Cl)c(Cl)c3)nc2C)ccc1OCC(=O)O [Example 75, 2-{2-Methyl-4-[({4-methyl-2-[3,4-dichlorophenyl]-1,3-thiazol-5-yl}methyl)sulfanyl]phenoxy}acetic Acid] to Cc1cc(SCc2sc(-c3ccc(F)c(F)c3)nc2C)ccc1OCC(=O)O [Example 77, 2-{2-Methyl-4-[({4-methyl-2-[3,4-difluorophenyl]-1,3-thiazol-5-yl}methyl)sulfanyl]phenoxy}acetic Acid], the melting point falls from 143 °C to 119 °C.

Compared with Cc1nc(-c2ccc(C(F)(F)F)cc2)oc1COc1ccc(CC(=O)O)cc1Cl (as salt: salt) [Example 50, 2-[3-Chloro-4-({4-methyl-2-[4-(trifluoromethyl)phenyl]-1,3-oxazol-5-yl}methoxy)phenyl]acetic Acid], Cc1nc(-c2cccc(C(F)(F)F)c2)oc1COc1ccc(CCC(=O)O)cc1 [Example 16, 3-[4-({4-Methyl-2-[3-(trifluoromethyl)phenyl]-1,3-oxazol-5-yl}methoxy)phenyl]propanoic Acid] is lower in melting point: 189 to 191 °C for the first, 134 to 135 °C for the second.

First: Cc1nc(-c2ccc(C(F)(F)F)cc2)sc1CSc1ccc(CC(=O)O)cc1 (as salt: salt) [Example 48, 2-{4-[({4-Methyl-2-[4-(trifluoromethyl)phenyl]-1,3-thiazol-5-yl}methyl)sulfanyl]phenyl}acetic Acid]
Second: Cc1nc(-c2ccc(C(F)(F)F)cc2)sc1CCOc1ccc(CC(=O)O)cc1 [Example 32]
The melting point of the first is higher: 202 to 203 °C for the first, 128 to 130 °C for the second.

Compared with Cc1nc(-c2ccc(C(F)(F)F)cc2)sc1CCOc1ccc(CCC(=O)O)cc1 [Example 14], Cc1sc(-c2ccc(C(F)(F)F)cc2)nc1CCOc1ccc(CCC(=O)O)cc1 [Example 10, 3-[4-(2-{5-Methyl-2-[4-(trifluoromethyl)phenyl]-1,3-thiazol-4-yl}ethoxy)phenyl]propanoic Acid] is higher in melting point: 128 to 130 °C for the first, 142 to 147 °C for the second.

First: COc1cc(CC(=O)O)ccc1SCc1sc(-c2ccc(C(F)(F)F)cc2)nc1C (as salt: salt) [Example 52, 2-{3-Methoxy-4-[({4-methyl-2-[4-(trifluoromethyl)phenyl]-1,3-thiazol-5-yl}methyl)sulfanyl]phenyl}acetic Acid]
Second: Cc1cc(SCc2sc(-c3cc(C(F)(F)F)cc(C(F)(F)F)c3)nc2C)ccc1OCC(=O)O [Example 79, 2-{2-Methyl-4-[({4-methyl-2-[3,5-bis(trifluoromethyl)phenyl]-1,3-thiazol-5-yl}methyl)sulfanyl]phenoxy}acetic Acid]
The melting point of the first is higher: 181 to 182 °C for the first, 178 °C for the second.

Compound Cc1cc(SCc2sc(-c3ccc(Br)cc3)nc2C)ccc1OCC(=O)O [Example 69, 2-{2-Methyl-4-[({4-methyl-2-[4-bromophenyl]-1,3-thiazol-5-yl}methyl)sulfanyl]phenoxy}acetic Acid] has a melting point greater than 250 °C.
